Measurements from patent publication US20240390388A1, “TRICYCLIC COMPOUNDS AND USE THEREOF” (MEDSHINE DISCOVERY INC., priority 2021, published 2024).
pIC50: −log10 of the molar value. Like-named read-outs stand apart in the source and are kept apart here.

Columns and labels:
[1] = Rat plasma-protein binding; type: in vitro ADME
PI3K β = target: T1, PI3K β (Homo sapiens, UniProt P42338); test: Enzyme activity test in vitro (ADP-Glo lipid kinase), PI3K β; type: biochemical; conditions: ATP 40 μM, 120 min
T1 construct: purchased Promega V1751
T1 sequence (P42338 whole entry): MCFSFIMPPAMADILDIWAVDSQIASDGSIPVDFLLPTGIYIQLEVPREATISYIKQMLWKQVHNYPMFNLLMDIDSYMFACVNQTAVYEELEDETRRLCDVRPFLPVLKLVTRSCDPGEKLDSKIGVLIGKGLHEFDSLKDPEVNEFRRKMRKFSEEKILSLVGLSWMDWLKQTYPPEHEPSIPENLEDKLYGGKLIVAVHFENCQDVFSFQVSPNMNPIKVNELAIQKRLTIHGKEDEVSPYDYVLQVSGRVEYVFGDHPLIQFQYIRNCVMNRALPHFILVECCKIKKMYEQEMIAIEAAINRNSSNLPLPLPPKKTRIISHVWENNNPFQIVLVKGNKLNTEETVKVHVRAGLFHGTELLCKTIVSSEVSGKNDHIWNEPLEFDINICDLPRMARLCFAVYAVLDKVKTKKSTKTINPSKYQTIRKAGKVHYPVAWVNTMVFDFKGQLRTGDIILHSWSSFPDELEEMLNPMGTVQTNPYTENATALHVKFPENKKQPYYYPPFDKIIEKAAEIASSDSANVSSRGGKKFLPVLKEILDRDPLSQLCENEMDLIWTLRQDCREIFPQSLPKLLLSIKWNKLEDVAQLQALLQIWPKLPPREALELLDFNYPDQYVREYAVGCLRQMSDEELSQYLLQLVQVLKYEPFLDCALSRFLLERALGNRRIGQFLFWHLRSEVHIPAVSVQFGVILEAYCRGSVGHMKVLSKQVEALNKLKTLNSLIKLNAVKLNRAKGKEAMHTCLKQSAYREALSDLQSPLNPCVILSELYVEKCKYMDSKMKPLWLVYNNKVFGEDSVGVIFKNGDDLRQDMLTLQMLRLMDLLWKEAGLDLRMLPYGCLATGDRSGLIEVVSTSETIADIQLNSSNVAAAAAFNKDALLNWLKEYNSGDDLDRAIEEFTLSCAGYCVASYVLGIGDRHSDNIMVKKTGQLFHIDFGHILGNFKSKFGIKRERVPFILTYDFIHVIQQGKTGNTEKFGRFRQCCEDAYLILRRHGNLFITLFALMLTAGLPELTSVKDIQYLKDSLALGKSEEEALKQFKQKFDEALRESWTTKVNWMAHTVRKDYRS
T1 sequence (P27986 whole entry partner): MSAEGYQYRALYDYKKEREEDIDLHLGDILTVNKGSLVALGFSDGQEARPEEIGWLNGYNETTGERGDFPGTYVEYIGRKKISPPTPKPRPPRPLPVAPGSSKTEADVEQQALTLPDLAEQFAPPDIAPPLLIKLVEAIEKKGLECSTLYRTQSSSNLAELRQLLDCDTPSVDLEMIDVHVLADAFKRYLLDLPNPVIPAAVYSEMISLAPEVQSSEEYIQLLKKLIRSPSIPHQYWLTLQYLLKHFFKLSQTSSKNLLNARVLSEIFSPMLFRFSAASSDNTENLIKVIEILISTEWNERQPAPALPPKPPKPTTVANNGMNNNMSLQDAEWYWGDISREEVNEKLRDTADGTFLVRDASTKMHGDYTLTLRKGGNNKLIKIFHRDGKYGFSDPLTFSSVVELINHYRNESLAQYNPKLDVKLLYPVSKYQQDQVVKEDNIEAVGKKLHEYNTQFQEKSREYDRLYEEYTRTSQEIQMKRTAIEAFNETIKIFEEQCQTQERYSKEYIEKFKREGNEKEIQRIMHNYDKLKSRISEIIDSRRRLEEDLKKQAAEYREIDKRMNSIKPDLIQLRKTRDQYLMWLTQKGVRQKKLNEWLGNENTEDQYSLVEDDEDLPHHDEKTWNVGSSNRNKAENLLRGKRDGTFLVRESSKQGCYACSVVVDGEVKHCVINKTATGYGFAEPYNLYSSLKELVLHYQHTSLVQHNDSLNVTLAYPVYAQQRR
Procedure: (§1) The lipid kinase reaction was carried out under the conditions of the appropriate substrate and ATP. Then the kinase activity was tested with the ADP-Glo™ kit in two steps. Step 1: The kinase reaction was terminated, in which residual ATP was completely removed, and only ADP was remained; Step 2: Kinase test reagent was added to convert ADP into ATP, accompanied by luciferin/luciferase reaction. Finally, the […] numerical output value was converted into kinase activity.
(§2) b) Kit: ADP-Glo™ Lipid Kinase and PIP2: 3PS Kit (Promega #V1792)
(§3) b) Final test system conditions: 1× reaction system: 50 mM HEPES, 50 mM NaCl, 3 mM MgCl2, 0.01% BSA (freshly prepared on the day of the experiment), 1% DMSO (v/v) +/−compound
(§4) c) Reaction system: 3 μL mixture of enzyme and substrate (1:1)+2 μL ATP/MgCl2 mixture +5 μL ADP-Glo reagent+10 μL assay reagent.
(§5) a) Compound dilution: 50 nL of 100× compound/DMSO was transferred to the test well plate with Echo
(§6) For PI3K β/PI3K δ/PI3K γ, the compounds were diluted three-fold from the highest concentration of 1.11 mM for a total of 10 concentrations.
(§7) (1) The compound to be tested was prepared. 50 nL of […] compound solution or DMSO was added to the corresponding well plate. […]
(§8) (16) Fluorescence values were measured on an Envision instrument.

PI3K α = target: T2, PI3K α (Homo sapiens, UniProt P42336); test: Enzyme activity test in vitro (ADP-Glo lipid kinase), PI3K α; type: biochemical; conditions: ATP 40 μM, 120 min
T2 construct: purchased Millipore 14-602-K
T2 sequence (P42336 whole entry): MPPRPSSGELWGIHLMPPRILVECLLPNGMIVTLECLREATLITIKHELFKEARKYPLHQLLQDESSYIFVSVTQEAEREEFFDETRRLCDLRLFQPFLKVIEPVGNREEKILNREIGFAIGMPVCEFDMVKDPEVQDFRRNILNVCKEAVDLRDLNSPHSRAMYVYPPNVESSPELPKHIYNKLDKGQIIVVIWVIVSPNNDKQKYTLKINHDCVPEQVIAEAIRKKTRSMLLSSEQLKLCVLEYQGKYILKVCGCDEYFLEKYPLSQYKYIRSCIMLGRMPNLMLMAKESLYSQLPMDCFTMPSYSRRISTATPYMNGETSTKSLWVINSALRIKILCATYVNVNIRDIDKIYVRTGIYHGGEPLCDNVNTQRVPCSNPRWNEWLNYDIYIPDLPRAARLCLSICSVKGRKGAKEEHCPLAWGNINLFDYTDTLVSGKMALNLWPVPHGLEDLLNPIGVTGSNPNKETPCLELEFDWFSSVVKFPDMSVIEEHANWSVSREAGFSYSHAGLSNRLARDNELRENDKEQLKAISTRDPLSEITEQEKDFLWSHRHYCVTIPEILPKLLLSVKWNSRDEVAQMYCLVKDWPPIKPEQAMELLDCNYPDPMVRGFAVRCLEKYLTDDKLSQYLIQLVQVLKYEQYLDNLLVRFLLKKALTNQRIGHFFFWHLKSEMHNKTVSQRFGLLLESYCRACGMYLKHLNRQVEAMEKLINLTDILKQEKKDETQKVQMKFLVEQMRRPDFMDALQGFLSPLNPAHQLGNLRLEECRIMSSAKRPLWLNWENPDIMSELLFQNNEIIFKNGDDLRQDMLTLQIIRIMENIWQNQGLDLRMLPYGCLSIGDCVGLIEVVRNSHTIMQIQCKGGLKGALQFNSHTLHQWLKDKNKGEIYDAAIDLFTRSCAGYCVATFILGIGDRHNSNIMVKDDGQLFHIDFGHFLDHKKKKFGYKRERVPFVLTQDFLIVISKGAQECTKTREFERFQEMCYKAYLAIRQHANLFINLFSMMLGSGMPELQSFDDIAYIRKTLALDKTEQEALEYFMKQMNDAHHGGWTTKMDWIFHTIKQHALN
T2 sequence (P27986 whole entry partner): as the sequence (P27986 whole entry partner) above
Procedure: as §1, §2, §3, §4, §5
For PI3K α, the compounds were diluted three-fold from the highest concentration of 0.111 mM for a total of 10 concentrations.
as §7, §8

[2] = tested on: HCC1954 cells with PIK3CA mutation; test: Cell activity test in vitro, anti-proliferation by CTG method, HCC1954; type: cell-based; conditions: 72 hours
Procedure: By CTG method, the effect of the compound to be tested on the anti-proliferation activity of cells was determined in two cell lines, HCC1954 and HDQ-P1.
(1) HCC1954 and HDQ-P1 cells (ATCC® HTB-22™) were inoculated into 96-well plates, respectively, with 100 μL of cell complete medium per well (4000 cells/HDQ-P1 per well, 3500 cells/HCC1954 per well). Cells were cultured at 37° C., 5% CO2 for 24 hours.
(2) The cell complete medium was replaced by 100 μL of serum-free medium. The cells were starved overnight.
(3) Compounds were prepared (the starting concentration of the compound was 10 μM, and diluted 3-fold for 8 concentrations. Each concentration of the compound was then diluted 100-fold with serum-free medium), and 25 μL of the diluted compound was added to the plate containing the cells.
(4) The well plate was incubated at 37° C., 5% CO2 for 72 hours (HCC1954) or 120 hours (HDQ-P1).
(5) Subsequent operations were performed according to the instructions of the Promega CTG kit.

MDR1 = test: MDCK-MDR1 permeability test; type: in vitro ADME; conditions: dog, pH 7.4, 2.5 hours
Procedure: Compounds in DMSO stock solution were diluted to 2 μM (DMSO<1%) with a transport buffer (HBSS with 10 mM Hepes, pH 7.4) and applied to the apical side or the basolateral side of the cell monolayer. Permeation of compounds from the A to B direction or from the B to A direction was determined in duplicate. The plate was incubated for 2.5 hours in a CO2 incubator at a temperature of 37+1° C. in a saturated humidity containing 5% CO2 without shaking. In addition, the efflux rate of each compound was also determined. Compounds were quantified by LC-MS/MS analysis based on the peak area ratio of analyte/IS.
After the transport assay, cell monolayer integrity was determined using the fluorescein exclusion test. The buffer was removed from the apical and basolateral chambers. Then 75 μL of 100 μM fluorescein transport buffer and 250 μL of transport buffer were added to the apical and basolateral chambers, respectively. The plate was incubated at 37° C., 5% CO2 and saturated humidity for 30 min without shaking. After 30 min of incubation, 20 μL of fluorescein sample was collected from the apical side, and 60 μL of transport buffer was added. An 80 μL of fluorescein sample was then collected from the basolateral side. Relative fluorescence units (RFU) of fluorescein were measured at 425/528 nm (excitation/emission) with an Envision microplate reader.

[3] = In vivo plasma/brain tissue distribution study in male SD rats; conditions: oral 10 mpk
Source text: Experimental purpose: Male SD rats were used as test animals to determine plasma concentrations of compounds and drug concentrations of brain tissue and cerebrospinal fluid after a single administration, and to evaluate the brain entry of the compound of the present disclosure.
Experimental operation: 12 healthy adult male SD rats were selected. The compound to be tested was mixed with an appropriate amount of solvent (DMSO/solvent/water (10:10:80 v/v/v)) for the oral administration group. The mixture was vortexed and sonicated to prepare a 1.0 mg/mL clear solution for further use. After oral administration of 10 mg/kg to rats, whole blood, brain tissue, and cerebrospinal fluid for a certain period of time were collected to prepare plasma, brain homogenate, and cerebrospinal fluid. The drug concentration was analyzed by LC-MS/MS method, and the pharmacokinetic parameters were calculated by Phoenix WinNonlin software (Pharsight, USA).

[4] = In vivo DMPK study in male CD-1 mice
Source text: Experimental purpose: Male CD-1 mice were used as test animals to determine plasma concentrations of compounds after a single administration and evaluate pharmacokinetic behavior.
Experimental operation: 8 healthy adult male CD-1 mice were selected, 4 for the intravenous injection group and 4 for the oral administration group. The compound to be tested was mixed with an appropriate amount of the solvent (DMSO/solvent/water (10:10:80 v/v/v)) for the intravenous injection group. The mixture solution was vortexed and sonicated to prepare a 1.0 mg/mL clear solution, which was filtered through a microporous membrane for further use. For the oral administration group, the solvent was DMSO/solvent/water (10:10:80 v/v/v). After the compound to be tested was mixed with the solvent, the mixture solution was vortexed and sonicated to prepare a 1.0 mg/mL homogeneous suspension for further use. After 1 mg/kg intravenous administration or 3 mg/kg oral administration in mice, whole blood was collected for a certain period of time to prepare plasma, and the drug concentration was analyzed by LC-MS/MS method, then the pharmacokinetic parameters were calculated using Phoenix WinNonlin software (Pharsight, USA).

PI3K γ = target: T3, PI3K γ (Homo sapiens, UniProt P48736); test: Enzyme activity test in vitro (ADP-Glo lipid kinase), PI3K γ; type: biochemical; conditions: ATP 25 μM, 120 min
T3 construct: purchased Millipore 14-558-K
T3 sequence (P48736 whole entry): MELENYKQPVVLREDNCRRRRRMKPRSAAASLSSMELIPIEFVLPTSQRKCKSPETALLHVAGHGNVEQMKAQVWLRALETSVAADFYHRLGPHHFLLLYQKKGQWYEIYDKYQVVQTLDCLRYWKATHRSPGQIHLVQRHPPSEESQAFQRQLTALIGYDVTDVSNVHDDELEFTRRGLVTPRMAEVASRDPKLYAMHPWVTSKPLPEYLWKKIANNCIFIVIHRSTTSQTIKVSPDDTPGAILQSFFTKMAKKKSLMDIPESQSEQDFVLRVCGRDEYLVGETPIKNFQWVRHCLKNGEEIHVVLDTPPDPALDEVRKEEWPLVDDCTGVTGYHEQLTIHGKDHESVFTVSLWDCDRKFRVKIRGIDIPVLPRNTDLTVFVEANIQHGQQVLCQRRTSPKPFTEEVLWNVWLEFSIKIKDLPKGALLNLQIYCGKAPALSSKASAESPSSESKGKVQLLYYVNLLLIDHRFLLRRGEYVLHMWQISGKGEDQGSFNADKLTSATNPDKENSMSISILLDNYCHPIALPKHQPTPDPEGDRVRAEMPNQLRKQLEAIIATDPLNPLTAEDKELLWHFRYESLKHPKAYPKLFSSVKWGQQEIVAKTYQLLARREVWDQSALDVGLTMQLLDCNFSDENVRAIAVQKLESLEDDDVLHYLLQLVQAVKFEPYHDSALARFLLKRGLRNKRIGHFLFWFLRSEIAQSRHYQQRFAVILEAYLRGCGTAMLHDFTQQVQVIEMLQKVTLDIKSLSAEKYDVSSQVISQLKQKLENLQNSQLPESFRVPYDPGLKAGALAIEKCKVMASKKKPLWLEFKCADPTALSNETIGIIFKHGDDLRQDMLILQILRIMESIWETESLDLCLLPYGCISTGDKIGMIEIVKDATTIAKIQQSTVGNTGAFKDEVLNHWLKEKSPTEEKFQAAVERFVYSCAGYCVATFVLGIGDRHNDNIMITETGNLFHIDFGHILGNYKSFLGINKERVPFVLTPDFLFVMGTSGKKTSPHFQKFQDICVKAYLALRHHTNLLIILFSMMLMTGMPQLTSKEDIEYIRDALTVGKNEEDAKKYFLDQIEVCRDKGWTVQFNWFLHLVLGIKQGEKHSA
Procedure: as §1, §2, §3, §4, §5, §6, §7, §8

PI3K δ = target: T4, PI3K δ (Homo sapiens, UniProt O00329); test: Enzyme activity test in vitro (ADP-Glo lipid kinase), PI3K δ; type: biochemical; conditions: ATP 40 μM, 120 min
T4 construct: purchased Millipore 14-604-K
T4 sequence (O00329 whole entry): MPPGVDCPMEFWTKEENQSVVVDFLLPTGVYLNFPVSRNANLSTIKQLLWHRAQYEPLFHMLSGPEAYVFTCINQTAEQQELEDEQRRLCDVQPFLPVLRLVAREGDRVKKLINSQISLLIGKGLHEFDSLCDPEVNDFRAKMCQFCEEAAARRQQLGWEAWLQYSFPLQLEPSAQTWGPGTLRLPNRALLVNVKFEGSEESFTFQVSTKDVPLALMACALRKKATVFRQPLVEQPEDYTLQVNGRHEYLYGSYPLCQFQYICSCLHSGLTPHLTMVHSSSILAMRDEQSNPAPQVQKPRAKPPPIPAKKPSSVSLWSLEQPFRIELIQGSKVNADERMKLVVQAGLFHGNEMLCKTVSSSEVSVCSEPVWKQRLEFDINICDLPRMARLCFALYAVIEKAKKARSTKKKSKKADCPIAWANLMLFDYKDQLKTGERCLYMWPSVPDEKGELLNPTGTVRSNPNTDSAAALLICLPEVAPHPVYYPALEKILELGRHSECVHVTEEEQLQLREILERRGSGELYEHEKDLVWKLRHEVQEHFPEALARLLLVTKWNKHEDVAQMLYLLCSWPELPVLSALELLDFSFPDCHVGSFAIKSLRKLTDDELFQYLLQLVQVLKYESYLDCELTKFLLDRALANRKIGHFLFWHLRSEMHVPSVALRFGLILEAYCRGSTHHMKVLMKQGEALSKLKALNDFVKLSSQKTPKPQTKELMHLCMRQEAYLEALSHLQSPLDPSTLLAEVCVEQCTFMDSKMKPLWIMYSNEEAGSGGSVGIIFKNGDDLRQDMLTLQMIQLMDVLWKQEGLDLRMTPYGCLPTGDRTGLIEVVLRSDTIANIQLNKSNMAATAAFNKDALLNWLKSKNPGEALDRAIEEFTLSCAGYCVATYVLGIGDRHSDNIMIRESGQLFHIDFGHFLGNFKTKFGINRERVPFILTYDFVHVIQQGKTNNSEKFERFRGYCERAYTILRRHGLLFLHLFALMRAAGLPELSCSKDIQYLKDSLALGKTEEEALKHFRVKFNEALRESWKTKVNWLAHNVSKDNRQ
T4 sequence (P27986 whole entry partner): as the sequence (P27986 whole entry partner) above
Procedure: as §1, §2, §3, §4, §5, §6, §7, §8

SMILES: C[C@H](Nc1ccc2c(c1)OCCn1cc(N3C(=O)OC[C@H]3C(F)F)nc1-2)C(N)=O [GDC-0077]
- fraction unbound [1]: 0.515
- pIC50 (PI3K β): 6.07
- pIC50 (PI3K α): 9.12
- pIC50 [2]: 7.00
- Papp A→B at 2.5 h, 2 μM (MDR1): 1.99 ×10⁻⁶ cm/s
- Papp B→A at 2.5 h, 2 μM (MDR1): 16 ×10⁻⁶ cm/s
- Tmax ([3]; male, SD, rat, 10 mg/kg, brain tissue, read-out: Tmax, Brain tissue): 1 h
- AUC ([3]; male, SD, rat, 10 mg/kg, cerebrospinal fluid, read-out: AUC, Cerebrospinal fluid): 0.128 µM·h
- Cmax ([3]; male, SD, rat, 10 mg/kg, cerebrospinal fluid, read-out: Cmax, Cerebrospinal fluid): 60.4 nM
- Tmax ([3]; male, SD, rat, 10 mg/kg, cerebrospinal fluid, read-out: Tmax, Cerebrospinal fluid): 1 h
- AUC ([3]; male, SD, rat, 10 mg/kg, plasma, read-out: AUC, Plasma): 3.12 µM·h
- Cmax ([3]; male, SD, rat, 10 mg/kg, plasma, read-out: Cmax, Plasma): 1520 nM
- half-life ([3]; male, SD, rat, 10 mg/kg, plasma, read-out: T1/2, Plasma (converted)): 1.32 h
- Tmax ([3]; male, SD, rat, 10 mg/kg, plasma, read-out: Tmax, Plasma): 0.25 h
- AUC, Brain tissue ([3]; brain tissue): ND, 342 nM * h
- Cmax, Brain tissue ([3]; brain tissue): 147 nM
- Oral DNAUC ([4]; 3 mg/kg oral administration): 778 nM · h/mpk
- clearance ([4]; male, CD-1, mouse, plasma, 1 mg/kg intravenous, read-out: Intravenous injection Cl): 26.1 mL/min/kg
- half-life ([4]; male, CD-1, mouse, plasma, 1 mg/kg intravenous, read-out: Intravenous injection T1/2 (converted)): 1.2 h
- Vd ([4]; male, CD-1, mouse, plasma, 1 mg/kg intravenous, read-out: Intravenous injection Vd): 1.09 L/kg
- Cmax ([4]; male, CD-1, mouse, plasma, 3 mg/kg oral administration): 1760 nM
- bioavailability ([4]; male, CD-1, mouse, plasma, 3 mg/kg oral vs 1 mg/kg intravenous, read-out: Oral F %): 50%
- pIC50 (PI3K γ): 7.14
- pIC50 (PI3K δ): 6.88
